Test results reported in BindingDB's records for doi:10.1016/S0960-894X(97)00090-5 (1997).
Peptide text beside a SMILES is read from it.

Test: The concentration of compound required to prevent 50 percent of cells from adhering to MAdCAM-1

| IC50 | SMILES |
| --- | --- |
| > 500 µM | CC(=O)N[C@@H](CC(C)C)C(=O)NCC(CC(=O)O)S(=O)(=O)N[C@H](C(N)=O)[C@@H](C)O (stereo partly drawn) [4-((S)-2-Acetylamino-4-methyl-pentanoylamino)-3-((S)-1-carbamoyl-2-(R)-hydroxy-propylsulfamoyl)-butyric acid] |
| 126 µM | CC(=O)N[C@@H](CC(C)C)C(=O)N[C@@H](CC(=O)O)C(=O)N[C@H](C(N)=O)C(C)C [(S)-3-((S)-2-Acetylamino-4-methyl-pentanoylamino)-N-((S)-1-carbamoyl-2-methyl-propyl)-succinamic acid] (Ac-Leu-Asp-Val-NH2) |
| 219 µM | CC(=O)N[C@@H](CC(C)C)C(=O)NCC(CC(=O)O)S(=O)(=O)N[C@H](C(N)=O)C(C)C (stereo partly drawn) [4-((S)-2-Acetylamino-4-methyl-pentanoylamino)-3-((S)-1-carbamoyl-2-methyl-propylsulfamoyl)-butyric acid] |
| 276 µM | CC(=O)N[C@@H](CC(C)C)C(=O)N[C@@H](CC(=O)O)C(=O)N[C@H](C(N)=O)[C@@H](C)O [(S)-3-((S)-2-Acetylamino-4-methyl-pentanoylamino)-N-((1S,2R)-1-carbamoyl-2-hydroxy-propyl)-succinamic acid] (Ac-Leu-Asp-Thr-NH2) |
